From US11279707B2, “NEK inhibitors and methods of use” (DANA-FARBER CANCER INSTITUTE, INC., priority 2017, dated 2022) come the findings set out here.

The structures appear in SMILES notation.

Holding throughout (assay type): biochemical
In one assay the target is T1, NEK2 (Homo sapiens, UniProt P51955).
T1 sequence (P51955 1-445): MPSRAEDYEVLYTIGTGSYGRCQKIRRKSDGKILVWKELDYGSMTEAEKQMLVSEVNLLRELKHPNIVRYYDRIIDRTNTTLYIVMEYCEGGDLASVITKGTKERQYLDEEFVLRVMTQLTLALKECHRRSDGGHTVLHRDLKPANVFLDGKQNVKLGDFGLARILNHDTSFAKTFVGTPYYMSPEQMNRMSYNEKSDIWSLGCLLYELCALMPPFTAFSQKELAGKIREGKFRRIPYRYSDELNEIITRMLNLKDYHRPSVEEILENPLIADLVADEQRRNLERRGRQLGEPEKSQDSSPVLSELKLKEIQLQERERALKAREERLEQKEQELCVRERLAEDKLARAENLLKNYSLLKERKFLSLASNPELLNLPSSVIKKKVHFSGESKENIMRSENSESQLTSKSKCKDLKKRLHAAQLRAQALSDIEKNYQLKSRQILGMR
Briefly: kinase inhibition, NEK2.

The target in the next assay is T2, NEK9 (Homo sapiens, UniProt Q8TD19).
T2 sequence (Q8TD19 1-979): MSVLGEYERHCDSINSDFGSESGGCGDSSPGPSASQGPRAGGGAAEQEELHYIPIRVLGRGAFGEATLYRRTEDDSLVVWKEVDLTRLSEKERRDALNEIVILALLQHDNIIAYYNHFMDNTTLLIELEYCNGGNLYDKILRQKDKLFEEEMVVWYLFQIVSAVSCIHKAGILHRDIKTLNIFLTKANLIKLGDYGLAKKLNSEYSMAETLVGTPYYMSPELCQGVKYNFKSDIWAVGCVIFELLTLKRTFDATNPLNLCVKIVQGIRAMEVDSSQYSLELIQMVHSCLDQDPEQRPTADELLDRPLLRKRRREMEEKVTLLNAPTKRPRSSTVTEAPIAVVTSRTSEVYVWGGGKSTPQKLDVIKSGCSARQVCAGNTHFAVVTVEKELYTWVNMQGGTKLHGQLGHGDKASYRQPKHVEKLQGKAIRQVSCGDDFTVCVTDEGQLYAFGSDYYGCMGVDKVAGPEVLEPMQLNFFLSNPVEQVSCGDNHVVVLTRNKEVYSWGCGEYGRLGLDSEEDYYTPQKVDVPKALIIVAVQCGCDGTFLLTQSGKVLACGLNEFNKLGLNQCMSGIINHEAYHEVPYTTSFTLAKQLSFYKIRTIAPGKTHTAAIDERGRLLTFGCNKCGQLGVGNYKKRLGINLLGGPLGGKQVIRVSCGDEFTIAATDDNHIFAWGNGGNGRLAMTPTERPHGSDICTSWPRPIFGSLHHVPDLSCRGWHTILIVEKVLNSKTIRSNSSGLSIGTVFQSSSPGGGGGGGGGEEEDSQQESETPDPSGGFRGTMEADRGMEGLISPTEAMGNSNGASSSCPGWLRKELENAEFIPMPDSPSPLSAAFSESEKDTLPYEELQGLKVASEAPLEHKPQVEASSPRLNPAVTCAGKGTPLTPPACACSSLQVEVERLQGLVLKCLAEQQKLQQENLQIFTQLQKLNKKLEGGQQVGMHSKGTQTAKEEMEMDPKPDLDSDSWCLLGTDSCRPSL
Briefly: kinase inhibition, NEK9.

Another assay addresses NEK6 (Homo sapiens, UniProt Q9HC98). Briefly: kinase inhibition, NEK6.
In the next assay the target is NEK7 (Homo sapiens, UniProt Q8TDX7). Briefly: kinase inhibition, NEK7.
Chain of NEK7 (Q8TDX7 whole entry, species assumed): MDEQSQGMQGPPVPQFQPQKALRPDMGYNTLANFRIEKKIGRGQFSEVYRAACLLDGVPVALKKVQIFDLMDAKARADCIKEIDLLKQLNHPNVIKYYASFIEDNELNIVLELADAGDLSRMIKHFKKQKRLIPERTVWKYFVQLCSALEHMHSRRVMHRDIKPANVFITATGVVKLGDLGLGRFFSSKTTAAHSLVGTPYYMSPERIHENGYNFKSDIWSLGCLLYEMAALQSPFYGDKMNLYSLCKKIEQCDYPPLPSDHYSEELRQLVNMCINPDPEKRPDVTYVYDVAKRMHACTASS
A further assay concerns the target CLK. Briefly: kinase inhibition, CLK.
The next assay addresses T3, DMPK (Homo sapiens, UniProt Q09013).
T3 sequence (Q09013 1-629): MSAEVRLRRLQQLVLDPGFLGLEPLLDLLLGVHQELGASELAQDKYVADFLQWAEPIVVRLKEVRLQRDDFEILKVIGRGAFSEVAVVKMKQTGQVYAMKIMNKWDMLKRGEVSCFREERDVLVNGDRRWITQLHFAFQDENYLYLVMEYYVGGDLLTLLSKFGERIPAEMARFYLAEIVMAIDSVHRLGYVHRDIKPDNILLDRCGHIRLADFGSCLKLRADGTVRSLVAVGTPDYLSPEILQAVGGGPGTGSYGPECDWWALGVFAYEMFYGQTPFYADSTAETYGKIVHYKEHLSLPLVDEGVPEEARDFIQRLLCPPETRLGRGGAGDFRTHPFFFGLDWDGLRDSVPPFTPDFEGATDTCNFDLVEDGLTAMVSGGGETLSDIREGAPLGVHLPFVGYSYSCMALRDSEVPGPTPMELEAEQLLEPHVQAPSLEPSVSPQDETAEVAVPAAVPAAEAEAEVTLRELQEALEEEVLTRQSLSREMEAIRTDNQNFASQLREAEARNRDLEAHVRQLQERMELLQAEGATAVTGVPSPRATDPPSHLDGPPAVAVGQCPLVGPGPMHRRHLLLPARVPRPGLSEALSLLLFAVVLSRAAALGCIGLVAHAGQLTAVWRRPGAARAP
Briefly: kinase inhibition, DMPK.

Chain of NEK6 (Q9HC98 whole entry, species assumed): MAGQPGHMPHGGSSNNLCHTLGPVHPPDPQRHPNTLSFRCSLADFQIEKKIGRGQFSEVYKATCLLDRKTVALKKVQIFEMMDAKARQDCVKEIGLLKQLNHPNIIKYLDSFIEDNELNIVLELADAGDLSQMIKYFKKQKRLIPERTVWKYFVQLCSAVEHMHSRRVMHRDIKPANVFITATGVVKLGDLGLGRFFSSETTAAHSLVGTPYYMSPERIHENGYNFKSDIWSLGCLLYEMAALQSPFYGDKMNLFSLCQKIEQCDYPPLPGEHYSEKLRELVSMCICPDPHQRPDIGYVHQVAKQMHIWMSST

As usually defined, the IC50 is the midpoint of a concentration-inhibition curve. The low end stands for higher potency, the high end for lower potency. As to `CCn1c(=O)c2cc3ccccc3n2c2nc(Nc3ccc(N4CCN(C)CC4)cc3)ncc21` [Compound I-26], the IC50 against NEK2 and at NEK9 was 50 to 250 nM throughout.

Regarding `CN1CCN(C2CCN(c3ccc(Nc4ncc5c(n4)n4c(cc6ccccc64)c(=O)n5C)cn3)CC2)CC1` [Compound I-23], the IC50 against NEK2 was at most 50 nM; on NEK6, 250 to 1000 nM; at NEK7 it was 250 to 1000 nM; at NEK9 it was at most 50 nM; against CLK it was 50 to 250 nM; on DMPK it was 50 to 250 nM.

`CN1C(=O)C2Cc3ccccc3N2c2nc(Nc3ccc(N4CCOCC4)cc3)ncc21` (stereo not drawn) [Compound I-32]: the IC50 on NEK2 and against NEK9 was 50 to 250 nM each time.

As to `CN1C(=O)C2Cc3ccccc3N2c2nc(Nc3ccc(N4CCC(N5CCOCC5)CC4)cc3)ncc21` (stereo not drawn) [Compound I-29], the concentration for half-maximal inhibition (IC50) on NEK2 and on NEK9 was at most 50 nM throughout.

Consider `Cn1c(=O)c2cc3ccccc3n2c2nc(Nc3cnn(CC(F)F)c3)ncc21` [Compound I-11], for which the concentration for half-maximal inhibition (IC50) against NEK2 was 250 to 1000 nM; against NEK6, at least 5000 nM; on NEK7, 1000 to 5000 nM; against NEK9, 50 to 250 nM; at CLK, at least 5000 nM; against DMPK, 1000 to 5000 nM.

In the case of `Cn1c(=O)c2cc3ccccc3n2c2nc(Nc3ccc(N4CCOCC4)nc3)ncc21` [Compound I-22], the IC50 lay within 50 to 250 nM at NEK2; 1000 to 5000 nM against NEK6; 250 to 1000 nM at NEK7; 50 to 250 nM against NEK9; 250 to 1000 nM against CLK; 250 to 1000 nM at DMPK.

Regarding `CN1C(=O)C2Cc3ccccc3N2c2nc(Nc3cc(N4CCOCC4)cc(N4CCOCC4)c3)ncc21` (stereo not drawn) [Compound I-31], the IC50 on NEK2 and against NEK9 was 50 to 250 nM each time.

With `COc1cc(N2CCOCC2)ccc1Nc1ncc2c(n1)N1c3ccccc3CC1C(=O)N2C` (stereo not drawn) [Compound I-33], the IC50 on NEK2 lay within 1000 to 5000 nM; at NEK9, 250 to 1000 nM.

With `CCN1CCN(c2ccc(Nc3ncc4c(n3)n3c(cc5ccccc53)c(=O)n4C)c(OC)c2)CC1` [Compound I-15], the IC50 on NEK2 is at most 50 nM; against NEK6 it was 250 to 1000 nM; at NEK7, 250 to 1000 nM; against NEK9, 50 to 250 nM; against CLK, 250 to 1000 nM; against DMPK, 250 to 1000 nM.

Turning to `CCN1CCN(c2ccc(Nc3ncc4c(n3)n3c(cc5ccccc53)c(=O)n4C)cc2)CC1` [Compound I-16], the IC50 against NEK2 is at most 50 nM; against NEK6, 250 to 1000 nM; against NEK7 it was 250 to 1000 nM; against NEK9, at most 50 nM; at CLK it was 50 to 250 nM; against DMPK it was 50 to 250 nM.

With `COc1cc(N2CCC(N3CCN(C)CC3)CC2)ccc1Nc1ncc2c(n1)n1c(cc3ccccc31)c(=O)n2C` [Compound I-9], the IC50 was 50 to 250 nM at NEK2; 250 to 1000 nM against NEK6; 250 to 1000 nM at NEK7; at most 50 nM against NEK9; 250 to 1000 nM on CLK; 1000 to 5000 nM against DMPK.

Take `COc1cc(C(=O)N2CCOCC2)ccc1Nc1ncc2c(n1)n1c(cc3ccccc31)c(=O)n2C` [Compound I-14]: the IC50 against NEK2 is 50 to 250 nM; against NEK6 it was 1000 to 5000 nM; against NEK7, 50 to 250 nM; at NEK9 it was at most 50 nM; at CLK, at least 5000 nM; against DMPK, 250 to 1000 nM.

For `COc1cc(N2CCC(C(N)=O)CC2)ccc1Nc1ncc2c(n1)n1c(cc3ccccc31)c(=O)n2C` [Compound I-20], the IC50 lay within 50 to 250 nM on NEK2; 250 to 1000 nM on NEK6; 50 to 250 nM at NEK7; 50 to 250 nM on NEK9; 1000 to 5000 nM against CLK; 1000 to 5000 nM against DMPK.

`CCN1CCN(c2ccc(Nc3ncc4c(n3)N3c5ccccc5CC3C(=O)N4C)cc2)CC1` (stereo not drawn) [Compound I-28]: the results for the concentration for half-maximal inhibition (IC50) against NEK2 and at NEK9 were 50 to 250 nM and at most 50 nM, respectively.

With `Cn1c(=O)c2cc3ccccc3n2c2nc(Nc3cc(N4CCOCC4)cc(N4CCOCC4)c3)ncc21` [Compound I-21], the IC50 against NEK2 was at most 50 nM; at NEK6, 250 to 1000 nM; at NEK7, 250 to 1000 nM; against NEK9 it was 50 to 250 nM; against CLK it was 250 to 1000 nM; on DMPK, 250 to 1000 nM.

In the case of `COc1cc(C(=O)N2CCN(C)CC2)ccc1Nc1ncc2c(n1)n1c(cc3ccccc31)c(=O)n2C` [Compound I-12], the concentration for half-maximal inhibition (IC50) is 50 to 250 nM on NEK2; 1000 to 5000 nM at NEK6; 1000 to 5000 nM on NEK7; 1000 to 5000 nM against NEK9; 250 to 1000 nM at CLK; 1000 to 5000 nM against DMPK.

Regarding `CCn1c(=O)c2cc3ccccc3n2c2nc(Nc3ccc(N4CCN(C)CC4)c(C(F)(F)F)c3)ncc21` [Compound I-27], the IC50 on NEK2 and against NEK9 was 250 to 1000 nM in each case.

Turning to `CC(C)Oc1cc(N2CCC(O)CC2)ccc1Nc1ncc2c(n1)n1c(cc3ccccc31)c(=O)n2C` [Compound I-19], the half-inhibitory concentration (IC50) against NEK2 was at least 5000 nM; against NEK6 it was 1000 to 5000 nM; against NEK7 it was 250 to 1000 nM; against NEK9 it was at least 5000 nM; against CLK, at least 5000 nM; on DMPK, at least 5000 nM.

Take `CN1CCN(c2ccc(Nc3ncc4c(n3)n3c(cc5ccccc53)c(=O)n4C)c(C(F)(F)F)c2)CC1` [Compound I-13]: the half-maximal inhibitory concentration (IC50) at NEK2 was 50 to 250 nM; against NEK6, 1000 to 5000 nM; against NEK7, 250 to 1000 nM; at NEK9, 1000 to 5000 nM; at CLK it was at least 5000 nM; at DMPK it was at least 5000 nM.

For the compound `COc1cc(N2CCN(C)CC2)ccc1Nc1ncc2c(n1)N1c3ccccc3CC1C(=O)N2C` (stereo not drawn) [Compound I-30], the half-inhibitory concentration (IC50) against NEK2 fell in the range of 250 to 1000 nM; at NEK9, 50 to 250 nM.

In the case of `Cn1c(=O)c2cc3ccccc3n2c2nc(Nc3cnn(CCN4CCOCC4)c3)ncc21` [Compound I-10], the IC50 against NEK2 was 50 to 250 nM; on NEK6, at least 5000 nM; against NEK7 it was 1000 to 5000 nM; against NEK9 it was 50 to 250 nM; against CLK, 1000 to 5000 nM; against DMPK it was 250 to 1000 nM.

Regarding `CCOc1cc(N2CCC(O)CC2)ccc1Nc1ncc2c(n1)n1c(cc3ccccc31)c(=O)n2C` [Compound I-18], the IC50 on NEK2 is 50 to 250 nM; at NEK6 it was 250 to 1000 nM; on NEK7, 250 to 1000 nM; at NEK9, 250 to 1000 nM; against CLK, at least 5000 nM; against DMPK, at least 5000 nM.

In the case of `CCN1CCN(c2ccc(Nc3ncc4c(n3)n3c(cc5ccccc53)c(=O)n4C)cc2C(F)(F)F)CC1` [Compound I-25], the values for the IC50 at NEK2 and against NEK9 were at most 50 nM and 50 to 250 nM, respectively.
